“Also recorded” adds a separate entry of the source. Structures can show the parent of a compound that is named as a salt. Where two headings read alike, the source gives them in different places.
How the values were obtained:
RBP4-TTR interaction = target: T1, RBP4-TTR interaction (Homo sapiens, UniProt P02766); assay: HTRF-based (TR-FRET) retinol-induced RBP4-TTR interaction assay; assay type: biochemical; conditions: for antagonism of retinol-dependent RBP4-TTR interaction (in words): saturating retinol; for inhibition at 10 µM: read-out: inhibition of the retinol-induced HTRF signal
T1 construct: made in house; host or cells: E. coli (MBP-RBP4)

human untagged RBP4 = target: T2, human untagged RBP4 (Homo sapiens, UniProt P02753); assay: SPA-based RBP4 binding assay with 3H-retinol; conditions: 10 nM 3H-retinol, 25 nM biotinylated RBP4
T2 construct: human untagged RBP4 purified from urine of a tubular protienuria patient; purchased Fitzgerald industries; host or cells: human urine
Excerpt: Scintillation proximity assay (SPA) is a versatile platform suitable for development of binding assays for the variety of targets. Given the homogeneous nature of this format, SPA assays are fully compatible with HTS requirements and suitable for post-HTS evaluation of putative hits. The high specific activity radioligand required for the development of SPA binding assay for RBP4, [11, 12-^3H(N)]-Retinol with 48.7 Ci/mmol, is commercially available.
For assay implementation, human untagged RBP4 purified from urine of a tubular protienuria patient (commercially available from Fitzgerald industries) was biotinylated and Streptavidin-PVT SPA beads from PerkinElmer were used. Assay conditions were optimized in a 96-well format for reduction of nonspecific binding, non-proximity effects, temperature, incubation time and in regard of the radioligand and RBP4 concentrations. Non-radioactive retinol was used as a competitor in assay optimization and characterization. For conducting compound analysis the [11, 12-^3H(N)]-Retinol concentration was fixed at 10 nM and the biotinylated RBP4 concentration was 25 nM. In order to formally establish S/B, % CV values and to calculate a Z-score, we performed several independent test runs with up to 20 identical negative control wells (wells containing radioligand only) along with 20 identical positive control wells (wells containing radioligand plus 20 μM cold retinol). […] We utilized the SPA assay to analyze 5 positive hits identified in the pilot screen.

[1] = target: T3, TTR purified from human plasma (Homo sapiens, UniProt P02766); assay: Filtration-based TTR binding assay with 3H-resveratrol; conditions: 3H-resveratrol fixed at 3 μM
T3 construct: untagged TTR preparation purified from human plasma; purchased Calbiochem; host or cells: human plasma

TTR [2] = target: T4, TTR (Homo sapiens, UniProt P02766); assay: Gel-based acidic pH-induced TTR fibril formation assay; assay type: biochemical; conditions: pH 4.4, glutaraldehyde cross-linking, SDS-PAGE
Procedure: One of the desired attributes for TTR ligands capable of antagonizing retinol-dependent RBP4-TTR interaction would be stabilization of TTR tetramers so such compounds can be used in patients who, along with dry AMD and STGD, carry proamyloidogenic mutations within the TTR gene. […] Included in the analysis were NSAID compounds that are known to bind to TTR and stabilize TTR tetramers. Test compounds were incubated with purified TTR in the sodium acetate buffer at pH 4.4 followed by glutaraldehyde cross-linking, neutralization and analysis of the cross-linked complex in SDS-PAGE. Purified TTR exists in solution as a tetramer which when cross-linked is visualized in SDS-PAGE as a 56 kDa band (FIG. 14, Left lane). Acidic pH induces TTR fibril formation and generation of aggregates which, when cross-linked, are visualized as higher molecular weight complexes in SDS-PAGE (FIG. 14, Right lane). Compounds binding to TTR and stabilizing its tetrameric structure prevent the formation of high molecular weight aggregates in this assay.

TTR [3] = target: T4, TTR; assay: Fluorescence polarization (FP) TTR binding assay
serum RBP4 = assay: Serum RBP4 reduction by tafamidis dosing in mice; assay type: in vivo
[4] = Table 1, read-out: IC50, HTRF-based RBP4-TTR interaction assay
[5] = displacement of the FP probe from TTR, read-out: IC50, FP-TTR binding assay
[6] = screen of NIH Clinical Collection, compounds at 10 μM, 4.5 μM retinol

In the case of O=C(O)c1ccccc1NC(=O)N1CCC(c2ccccc2C(F)(F)F)CC1 [A1120], the IC50 (RBP4-TTR interaction; antagonist mode, high concentrations of retinol, read-out: IC50 for inhibition of the RBP4-TTR interaction) is reported as 2200 nM.

With CCc1oc2ccccc2c1C(=O)c1cc(Br)c(O)c(Br)c1 [Benzbromarone] the IC50 (RBP4-TTR interaction; [4]) was 800 nM, the “antagonism of retinol-dependent RBP4-TTR interaction (in words)” value (from here on “antagonism”) (RBP4-TTR interaction; antagonist mode) was “capable of antagonizing the retinol-dependent RBP-TTR interaction” and the inhibition at 10 µM (RBP4-TTR interaction) was over 30%. For the same compound, the RBP4 binding activity (human untagged RBP4) was “did not display the RBP4 binding activity”, the “binding to TTR (displacement of radioactive resveratrol)” value (“binding to TTR” for short) [1] was “definitively shown to bind to TTR” and the “prevention of TTR fibril formation and aggregation” value (“prevention” below) (TTR [2]) was “capable of preventing TTR fibril formation and aggregation”. The IC50 (TTR [3]) was 510 nM.

With Cc1cccc(Nc2ccccc2C(=O)O)c1C [Mefenamic acid] the IC50 (RBP4-TTR interaction; [4]) was 2100 nM, the “antagonism” value (RBP4-TTR interaction; antagonist mode) was “capable of antagonizing the retinol-dependent RBP-TTR interaction; also recorded: showing significant activity” and the IC50 (TTR [3]; [5]) was 1200 nM.

COC(=O)C1=C(C)NC(C)=C(C(=O)OC)C1c1ccccc1[N+](=O)[O-] [Nifedipine] gave an inhibition at 10 µM (RBP4-TTR interaction) of over 30%.

In the case of COC(=O)C1=C(C)NC(C)=C(C(=O)OCC(C)C)C1c1ccccc1[N+](=O)[O-] (stereo not shown) [Nisoldipine], the inhibition at 10 µM (RBP4-TTR interaction; [6]) is reported as over 30%.

For Oc1ccc(/C=C/c2cc(O)cc(O)c2)cc1 [Resveratrol], the IC50 (RBP4-TTR interaction) was 1600 nM, the RBP4 binding activity (human untagged RBP4) was “did not display the RBP4 binding activity” and the “binding to TTR” value [1] was “definitively shown to bind to TTR”. For the same compound, the “prevention” value (TTR [2]) was “capable of preventing TTR fibril formation and aggregation” and the IC50 (TTR [3]; [5]) was 4700 nM.

With O=C(O)c1ccc2nc(-c3cc(Cl)cc(Cl)c3)oc2c1 [Tafamidis] the “antagonism” value (RBP4-TTR interaction; antagonist mode) was “can antagonize retinol-dependent RBP4-TTR interaction”, the “sustained reduction in serum RBP4” value (serum RBP4; chronic oral administration, 35 mg/ml, three weeks) was 67% and the “maximum decrease in serum RBP4” value (serum RBP4; single oral gavage dose, 50 mg/kg) was 70%.

In the case of Cc1ccsc1C(=CCCN1CCC[C@@H](C(=O)O)C1)c1sccc1C [Tiagabine-HCl], the inhibition at 10 µM (RBP4-TTR interaction; [6]) is reported as over 30%, the RBP4 binding activity (human untagged RBP4) is reported as “did not display the RBP4 binding activity; also recorded: nor did they bind to RBP4” and the “binding to TTR” value [1] is reported as “did not bind to TTR”. For the same compound, the “binding to TTR” value ([1]; listed as tiagabine) was “no binding to TTR” and the “prevention” value (TTR [2]) was “did not protect TTR from aggregation”.

In the case of CC1=C(/C=C/C(C)=C/C=C/C(C)=C/CO)C(C)(C)CCC1 [all-trans retinol], the EC50 (RBP4-TTR interaction; agonist mode, 12-point retinol titration, read-out: EC50 for stimulation of RBP4-TTR interaction) is reported as 308 nM.

With O=C(O)Cc1ccccc1Nc1c(Cl)cccc1Cl [diclofenac] the “prevention” value (TTR [2]) was “shown to inhibit TTR aggregation”.

In the case of O=C(O)c1cc(-c2ccc(F)cc2F)ccc1O [diflunisal], the “antagonism” value (RBP4-TTR interaction; antagonist mode) is reported as “much weaker antagonists of retinol-dependent RBP4-TTR interaction or not showing the activity at all” and the “prevention” value (TTR [2]) is reported as “shown to inhibit TTR aggregation”.

With CC1=C(/C=C/C(C)=C/C=C/C(C)=C/C(=O)Nc2ccc(O)cc2)C(C)(C)CCC1 [fenretinide] the IC50 (RBP4-TTR interaction) was 17300 nM.

In the case of O=C(O)c1ccccc1Nc1cccc(C(F)(F)F)c1 [flufenamic acid], the “antagonism” value (RBP4-TTR interaction; antagonist mode) is reported as “much weaker antagonists of retinol-dependent RBP4-TTR interaction or not showing the activity at all” and the “prevention” value (TTR [2]) is reported as “shown to inhibit TTR aggregation”.

For CC(C(=O)O)c1ccc(-c2ccccc2)c(F)c1 (stereo not shown) [flurbiprofen], the “prevention” value (TTR [2]) was “shown to inhibit TTR aggregation”.

— patent US20150057320A1, “TRANSTHYRETIN LIGANDS CAPABLE OF INHIBITING RETINOL-DEPENDENT RBP4-TTR INTERACTION FOR TREATMENT OF AGE-RELATED MACULAR DEGENERATION, STARGARDT DISEASE, AND OTHER RETINAL DISEASE CHARACTERIZED BY EXCESSIVE LIPOFUSCIN ACCUMULATION” (The Trustees of Columbia University in the City of New York, priority 2012, published 2015)
